A word on the EC50: it is the concentration giving half of the maximal effect. For orientation: IC50 means the concentration that inhibits the measured activity by half. Low values mean greater potency in that assay, high ones weaker potency in that assay.

Each structure is given as a SMILES string.

For assay [1], the system named is genotype 1a-H77 subgenomic replicon cell line. The assay is described as follows: microbe, parasite or virus in culture. In kind it is cell-based, HCV. Particulars: Hepatitis C virus, read-out: EC50 1a.
Assay [2] addresses T1, HCV polymerase 1A (Δ21 NS5B, H77) (Hepatitis C virus genotype 1a, UniProt P27958).
T1 construct: 20 to 50 nM Δ21 NS5B
The assay is described as follows: biochemical. Particulars: IC50 1a. The procedure, abridged:
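Incorporation of 1 μM ^3H-UTP, with 20 μM each of CTP and ATP on 5 nM template RNA, ran 2–4 h at room temperature. Spermine-precipitated product was filtered and scintillation-counted. IC50 came from tight-binding non-linear regression of cpm against inhibitor concentration.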

The target in assay [3] is T2, HCV polymerase 1B (Δ21 NS5B, BK) (Hepatitis C virus genotype 1b, UniProt P26663).
T2 construct: 20 to 50 nM Δ21 NS5B
The assay is described as follows: biochemical. The method, boiled down: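 Δ21 NS5B (genotype 1b, BK […]) preincubated 15 min RT with inhibitor, 2 mM MnCl2, pH 7.4, 60–125 μM GTP; started with 20 μM CTP/ATP, 1 μM 3H-UTP, 5 nM template RNA, run 2–4 h RT. Spermine-precipitated RNA filter-captured, scintillation counted; IC50 from tight-binding (Morrison) fit.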

In assay [4] the test system is genotype 1b-Con1 subgenomic replicon cell line. The assay is described as follows: microbe, parasite or virus in culture. In kind it is cell-based, HCV. The settings on record: Hepatitis C virus, read-out: EC50 1b.

T1 sequence (P27958 2421-2990, stated change not applied): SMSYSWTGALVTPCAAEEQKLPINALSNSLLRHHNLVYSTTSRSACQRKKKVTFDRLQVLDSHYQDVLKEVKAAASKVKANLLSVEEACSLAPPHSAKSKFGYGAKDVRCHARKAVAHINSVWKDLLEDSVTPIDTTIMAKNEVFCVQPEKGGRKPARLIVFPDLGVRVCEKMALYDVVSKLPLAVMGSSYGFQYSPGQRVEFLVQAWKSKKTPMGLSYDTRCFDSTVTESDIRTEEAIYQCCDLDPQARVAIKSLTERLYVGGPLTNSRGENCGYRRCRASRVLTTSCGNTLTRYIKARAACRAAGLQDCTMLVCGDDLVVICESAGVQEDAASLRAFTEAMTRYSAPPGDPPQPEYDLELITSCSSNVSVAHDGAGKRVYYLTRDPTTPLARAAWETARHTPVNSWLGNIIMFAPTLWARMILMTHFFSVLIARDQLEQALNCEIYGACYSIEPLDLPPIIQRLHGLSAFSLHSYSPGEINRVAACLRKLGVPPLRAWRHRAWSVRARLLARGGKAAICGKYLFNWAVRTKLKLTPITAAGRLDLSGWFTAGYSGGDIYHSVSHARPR
T2 sequence (P26663 2420-2989, stated change not applied): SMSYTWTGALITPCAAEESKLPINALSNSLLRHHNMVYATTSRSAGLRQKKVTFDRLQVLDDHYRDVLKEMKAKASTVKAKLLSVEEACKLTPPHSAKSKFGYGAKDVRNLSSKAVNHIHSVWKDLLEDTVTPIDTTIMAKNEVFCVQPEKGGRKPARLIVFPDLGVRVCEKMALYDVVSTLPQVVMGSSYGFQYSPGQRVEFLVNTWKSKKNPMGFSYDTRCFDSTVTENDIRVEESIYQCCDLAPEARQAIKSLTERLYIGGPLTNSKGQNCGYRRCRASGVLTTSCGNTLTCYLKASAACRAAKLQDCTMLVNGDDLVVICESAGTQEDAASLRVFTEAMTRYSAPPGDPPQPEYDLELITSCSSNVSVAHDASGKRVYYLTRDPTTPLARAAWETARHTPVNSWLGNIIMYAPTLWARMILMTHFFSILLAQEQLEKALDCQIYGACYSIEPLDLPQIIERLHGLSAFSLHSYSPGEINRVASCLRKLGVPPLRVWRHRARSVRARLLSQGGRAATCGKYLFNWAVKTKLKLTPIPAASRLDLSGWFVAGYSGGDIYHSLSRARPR

With `COc1c(-c2ccc3c(c2)CC[C@H]3C(C)(C)NS(C)(=O)=O)cc(-n2ccc(=O)[nH]c2=O)cc1C(C)(C)C` (single isomer, unassigned) [IB-L0-2.37], the concentration giving a half-maximal response (EC50) in assay [1] was over 1000 nM; in assay [4] it was 100 to 1000 nM. Moreover, the IC50 in assay [2] and in assay [3] was 100 to 1000 nM each time.
Take `COc1c(C#Cc2ncc(NS(C)(=O)=O)cc2C)cc(N2CCC(=O)NC2=O)cc1C(C)(C)C` [IA-L2-1.24, N-(6-((3-tert-butyl-5-(2,4-dioxotetrahydropyrimidin-1(2H)-yl)-2-methoxyphenyl)ethynyl)-5-methylpyridin-3-yl)methanesulfonamide]: the EC50 lay within 100 to 1000 nM in assay [1] and 10 to 100 nM in assay [4]. Moreover, the IC50 in assay [2] is under 10 nM; in assay [3], 10 to 100 nM.
Regarding `CCc1cc(N2CCC(=O)NC2=O)cc(C(=O)Nc2ccc(NS(C)(=O)=O)cc2)c1O` [IA-L3-1.113, 5-(2,4-dioxotetrahydropyrimidin-1(2H)-yl)-3-ethyl-2-hydroxy-N-(4-(methylsulfonamido)phenyl)benzamide], the EC50 in assay [1] and in assay [4] was over 1000 nM throughout. For the same molecule, the IC50 in assay [2] and in assay [3] was over 1000 nM throughout.
`COc1c(C#Cc2ccc(NS(C)(=O)=O)c3ccccc23)cc(-n2ccc(=O)[nH]c2=O)cc1C(C)(C)C` [IB-L2-2.1, N-(4-((3-tert-butyl-5-(2,4-dioxo-3,4-dihydropyrimidin-1(2H)-yl)-2-methoxyphenyl)ethynyl)-naphthalen-1-yl)methanesulfonamide]: the EC50 in assay [1] and in assay [4] was 100 to 1000 nM each time. Besides, the IC50 in assay [2] and in assay [3] was 10 to 100 nM each time.
For `COc1c(-c2ccc3c(c2)CCC3C(=O)NS(C)(=O)=O)cc(-n2ccc(=O)[nH]c2=O)cc1C(C)(C)C` (stereo not drawn) [IB-L0-2.34, 5-(3-tert-butyl-5-(2,4-dioxo-3,4-dihydropyrimidin-1(2H)-yl)-2-methoxyphenyl)-N-(methylsulfonyl)-2,3-dihydro-1H-indene-1-carboxamide], the values for the EC50 in assay [1] and in assay [4] were over 1000 nM and 100 to 1000 nM, respectively. Also, the IC50 in assay [2] and in assay [3] was 10 to 100 nM in each case.
Take `COc1c(-c2ccc3c(CNS(C)(=O)=O)csc3c2)cc(-n2ccc(=O)[nH]c2=O)cc1C(C)(C)C` [IB-L0-2.11, N-((6-(3-tert-butyl-5-(2,4-dioxo-3,4-dihydropyrimidin-1(2H)-yl)-2-methoxyphenyl)benzo[b]thiophen-3-yl)methyl)methanesulfonamide]: the EC50 in assay [1] was 10 to 100 nM; in assay [4] it was under 10 nM. The IC50 in assay [2] and in assay [3] was under 10 nM each time.
Take `COc1c(C#Cc2ccc(NS(C)(=O)=O)cc2Cl)cc(N2CCC(=O)NC2=O)cc1C(C)(C)C` [IA-L2-1.14, N-(4-((3-tert-butyl-5-(2,4-dioxotetrahydropyrimidin-1(2H)-yl)-2-methoxyphenyl)ethynyl)-3-chlorophenyl)methanesulfonamide]: the EC50 in assay [1] and in assay [4] was under 10 nM each time. Moreover, the IC50 in assay [2] and in assay [3] was under 10 nM each time.
`COc1ccc(OC)c(S(=O)(=O)Nc2ccc(NC(=O)c3cc(N4CCC(=O)NC4=O)cc(C(C)(C)C)c3OC)cc2)c1` [IA-L3-1.121, 3-tert-butyl-N-(4-(2,5-dimethoxyphenylsulfonamido)phenyl)-5-(2,4-dioxotetrahydro-pyrimidin-1(2H)-yl)-2-methoxybenzamide]: the EC50 in assay [1] was over 1000 nM; in assay [4], 100 to 1000 nM. Moreover, the IC50 in assay [2] and in assay [3] was 100 to 1000 nM throughout.
`COc1c(-c2ccc3c(c2)CC[C@@H]3C(C)(C)NS(C)(=O)=O)cc(-n2ccc(=O)[nH]c2=O)cc1C(C)(C)C` (single isomer, unassigned) [IB-L0-2.22]: the EC50 in assay [1] lay in the range of 100 to 1000 nM; in assay [4], 10 to 100 nM. The IC50 in assay [2] and in assay [3] was 10 to 100 nM each time.
For the molecule `COc1c(C#Cc2ccc(NS(C)(=O)=O)c(C)c2)cc(N2CCC(=O)NC2=O)cc1C(C)(C)C` [IA-L2-1.10, N-(4-((3-tert-butyl-5-(2,4-dioxotetrahydropyrimidin-1(2H)-yl)-2-methoxyphenyl)ethynyl)-2-methylphenyl)methanesulfonamide], the EC50 was 100 to 1000 nM in assay [1] and 10 to 100 nM in assay [4]. The IC50 in assay [2] and in assay [3] was 10 to 100 nM each time.
On to `CCCC(=O)OCN(c1ccc(NC(=O)c2cc(N3CCC(=O)NC3=O)cc(C(C)(C)C)c2OC)cc1)S(C)(=O)=O` [IA-L3-1.123, (N-(4-(3-tert-butyl-5-(2,4-dioxotetrahydropyrimidin-1(2H)-yl)-2-methoxybenzamido)phenyl)methylsulfonamido)methyl butyrate], for which the EC50 in assay [1] fell in the range of 100 to 1000 nM; in assay [4] it was 10 to 100 nM. The IC50 in assay [2] and in assay [3] was over 1000 nM in each case.
For the molecule `COc1c(CNc2ccc(NS(C)(=O)=O)cc2)cc(N2CCC(=O)NC2=O)cc1C(C)(C)C` [IA-L9-1.4, N-(4-(3-tert-butyl-5-(2,4-dioxotetrahydropyrimidin-1(2H)-yl)-2-methoxybenzylamino)phenyl)methanesulfonamide], the EC50 in assay [1] is over 1000 nM; in assay [4], 100 to 1000 nM. Moreover, the figures for the IC50 in assay [2] and in assay [3] were 10 to 100 nM and 100 to 1000 nM, respectively.
As to `COc1c(C(=O)N(C)c2ccc(NS(C)(=O)=O)cc2)cc(N2CCC(=O)NC2=O)cc1C(C)(C)C` [IA-L3-1.27, 3-tert-butyl-5-(2,4-dioxotetrahydropyrimidin-1(2H)-yl)-2-methoxy-N-methyl-N-(4-(methylsulfonamido)phenyl)benzamide], the EC50 in assay [1] and in assay [4] was over 1000 nM in each case. Also, the IC50 in assay [2] and in assay [3] was 100 to 1000 nM throughout.
Take `COc1c(C(=O)Nc2ccc(N(C(C)=O)S(C)(=O)=O)cc2)cc(N2CCC(=O)NC2=O)cc1C(C)(C)C` [IA-L3-1.69, N-[4-(acetyl-methanesulfonyl-amino)-phenyl]-3-tert-butyl-5-(2,4-dioxo-tetrahydro-pyrimidin-1-yl)-2-methoxy-benzamide]: the EC50 in assay [1] is 100 to 1000 nM; in assay [4], 10 to 100 nM. The IC50 in assay [2] and in assay [3] was 100 to 1000 nM throughout.
Take `COc1c(COc2ccc(NS(C)(=O)=O)cc2)cc(N2CCC(=O)NC2=O)cc1C(C)(C)C` [IA-L6-1.1, N-(4-(3-tert-butyl-5-(2,4-dioxotetrahydropyrimidin-1(2H)-yl)-2-methoxybenzyloxy)phenyl)methanesulfonamide]: the EC50 lay within 100 to 1000 nM in assay [1] and 10 to 100 nM in assay [4]. The values for the IC50 in assay [2] and in assay [3] were 10 to 100 nM and 100 to 1000 nM, respectively.
In the case of `COc1c(-c2ccc(NS(C)(=O)=O)cc2)cc(-n2ccc(=O)[nH]c2=O)cc1C(C)(C)C` [IB-L0-1.2, N-(3′-tert-butyl-5′-(2,4-dioxo-3,4-dihydropyrimidin-1(2H)-yl)-2′-methoxybiphenyl-4-yl)methanesulfonamide], the EC50 in assay [1] and in assay [4] was over 1000 nM in each case. Also, the IC50 in assay [2] and in assay [3] was 100 to 1000 nM throughout.
Regarding `COc1c(-c2cccc(/C=N/NS(C)(=O)=O)c2)cc(-n2ccc(=O)[nH]c2=O)cc1C(C)(C)C` [IB-L0-1.10, (E)-N′-((3′-tert-butyl-5′-(2,4-dioxo-3,4-dihydropyrimidin-1(2H)-yl)-2′-methoxybiphenyl-3-yl)methylene)methanesulfonohydrazide], the EC50 in assay [1] and in assay [4] was over 1000 nM in each case. Also, the IC50 in assay [2] and in assay [3] was 100 to 1000 nM throughout.
Take `COc1c(C#Cc2ccc(NS(C)(=O)=O)c3ccccc23)cc(N2CCC(=O)NC2=O)cc1C(C)(C)C` [IA-L2-2.1, N-(4-((3-tert-butyl-5-(2,4-dioxotetrahydropyrimidin-1(2H)-yl)-2-methoxyphenyl)ethynyl)-naphthalen-1-yl)methanesulfonamide]: the EC50 in assay [1] and in assay [4] was 100 to 1000 nM in each case. The IC50 in assay [2] and in assay [3] was 10 to 100 nM throughout.
`COc1c(-c2ccc(NC(=O)NS(C)(=O)=O)cc2)cc(-n2ccc(=O)[nH]c2=O)cc1C(C)(C)C` [IB-L0-1.7, N-(3′-tert-butyl-5′-(2,4-dioxo-3,4-dihydropyrimidin-1(2H)-yl)-2′-methoxybiphenyl-4-ylcarbamoyl)methanesulfonamide]: the values for the EC50 in assay [1] and in assay [4] were over 1000 nM and 100 to 1000 nM, respectively. Besides, the IC50 in assay [2] and in assay [3] was 10 to 100 nM in each case.
Regarding `CC(C)(C)c1cc(N2CCC(=O)NC2=O)cc(C(=O)Nc2ccc(NS(=O)(=O)CC(F)(F)F)cc2)c1O` [IA-L3-1.9, 3-tert-butyl-5-(2,4-dioxotetrahydropyrimidin-1(2H)-yl)-2-hydroxy-N-(4-(2,2,2-trifluoroethylsulfonamido)phenyl)benzamide], the EC50 in assay [1] and in assay [4] was over 1000 nM throughout. The IC50 was in the range of 100 to 1000 nM in assay [2] and 10 to 100 nM in assay [3].
With `COc1c(C#Cc2ccc(NS(C)(=O)=O)cc2F)cc(N2CCC(=O)NC2=O)cc1C(C)(C)C` [IA-L2-1.12, N-(4-((3-tert-butyl-5-(2,4-dioxotetrahydropyrimidin-1(2H)-yl)-2-methoxyphenyl)ethynyl)-3-fluorophenyl)methanesulfonamide], the EC50 is 10 to 100 nM in assay [1] and under 10 nM in assay [4]. The IC50 in assay [2] and in assay [3] was under 10 nM in each case.

(Values after patent US8415351B2 (priority 2007, dated 2013).)
